Here are results for 1 compound from patent publication US20240173389A1, “Compositions and Methods For Reducing Immune Intolerance” (LAPIX THERAPEUTICS, INC., priority 2021, published 2024).

The test has as its system TLR9. The experiment in a line: TNF-α production by splenocytes in response to TLR9 ligand ODN CpG. Format: cell-based, C57BL/6 mice. The conditions noted are these: for TNF-α mean: 48 hours, OPLT 1.85 μg/ml, dexamethasone 100 μg/ml, rapamycin 625 μg/ml. Here is the method:
OPLT was dissolved in sterile PBS at 100 μM, and pH was adjusted to approximately 7.5. Splenocytes from naïve C57BL/6 mice were stained with CFSE, prepared, cultured, and dosed. Cells were seeded at 2×10^5 cells/well.
To evaluate the effects of OPLT on cytokine production by splenocytes in response to different TLR ligands, splenocytes were incubated with one of the following TLR ligands in triplicate: PGN, LPS, ODN CPG, dsRNA, or ssRNA, as per group assignment. Cells were then treated as follows: • Control: No treatment; • OPLT: Cells were dosed with 1.85 μg/ml; • Dexamethasone: Cells were dosed with 100 μg/ml; • Rapamycin: Cells were dosed with 625 μg/ml. Cells were incubated for 48 hours before collecting the supernatant for TNF-α analysis.
The supernatant was collected for TNF-α analysis by ELISA.

For `N[C@@H](Cc1ccc(OP(=O)(O)O)cc1)C(=O)O` [OPLT, O-phospho-L-tyrosine], the TNF-α mean is, setting by setting: (ODN CpG 0 ng/ml) 0 pg/mL; (ODN CpG 1 ng/ml, CTL 0) 0 pg/mL; (ODN CpG 10 ng/ml, CTL 338) 0 pg/mL; (ODN CpG 100 ng/ml, CTL 1220) 1178 pg/mL. Moreover, the “effect on splenocytes' TNF-α response to the TLR9 ligand ODN CpG (in words)” value is listed as “did not” (high dose of ODN CpG) and “reduced splenocytes' response to mid-dose of the TLR9 ligand ODN CpG” (mid-dose of ODN CpG, statistically significant).
